The text below walks through data of patent US11999758B2, “Inhibitors of the YAP/TAZ-TEAD interaction and their use in the treatment of cancer” (INVENTIVA, priority 2018, dated 2024).

For the experiment, the target named is T1, YAP-TEAD interaction (Homo sapiens, UniProt P28347).
T1 construct: expressed in transfected cells; host or cells: HEK293 GripTite 293 MSR (Invitrogen R795-07)
The experiment can be described thus: Cell-based TEAD-GAL4 transactivation assay (luciferase reporter). To be noted: HEK293 cells transfected with TEAD1-Gal4, YAP mutant (S127A, S397A) and luciferase reporter, compounds 0.1 μM to 30 μM; for Emax: HEK293, 24 h, read-out: TEAD-GAL4 Transactivation activity Max Act; for IC50: 24 h. Summed up: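 HEK293 cells transiently transfected with Gal4-DBD–full-length human TEAD1, full-length YAP S127A/S397A (YAP/TEAD ratio 10) and a 5×GAL4-RE TK-luciferase reporter. Six hours later, compounds added semi-log from 0.1 to 30 μM (DMSO 0.5% control) for 24 h. Luciferase read; IC50 from 3-parameter fit.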
In general terms: In a reporter assay the amount or activity of a reporter protein is the signal.

Structures can show the parent of a compound that is named as a salt.

T1 sequence (P28347 whole entry): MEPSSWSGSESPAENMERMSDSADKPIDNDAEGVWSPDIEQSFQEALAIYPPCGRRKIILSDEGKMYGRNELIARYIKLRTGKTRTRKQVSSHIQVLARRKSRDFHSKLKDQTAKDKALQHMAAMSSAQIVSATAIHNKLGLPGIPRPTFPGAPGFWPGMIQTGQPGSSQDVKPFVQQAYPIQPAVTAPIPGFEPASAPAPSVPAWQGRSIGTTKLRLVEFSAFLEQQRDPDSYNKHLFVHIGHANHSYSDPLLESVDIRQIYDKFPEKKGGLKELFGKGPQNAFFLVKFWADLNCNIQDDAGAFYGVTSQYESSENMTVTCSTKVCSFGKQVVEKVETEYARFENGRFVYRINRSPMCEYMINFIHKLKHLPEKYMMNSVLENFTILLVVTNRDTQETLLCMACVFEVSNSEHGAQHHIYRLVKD

Broadly, the IC50 is the concentration needed to halve the response being measured. On to `COc1cc(C2=NN(c3ncnc4c(OC)cccc34)C(C)CC2)ccc1B(O)O` (single isomer, unassigned; isomer 1) [Ex124, [2-methoxy-4-[2-(8-methoxyquinazolin-4-yl)-3-methyl-4,5-dihydro-3H-pyridazin-6-yl]phenyl]boronic acid (isomer 1)], for which the Emax came to 93% and half-maximal inhibition (IC50) required 7270 nM.

For the compound `CCN(/N=C/c1ccc2c(c1)COB2O)c1ncnc2c(C(=O)N(C)C)csc12` [Ex113, 4-[ethyl-[(E)-(1-hydroxy-3H-2,1-benzoxaborol-5-yl)methyleneamino]-amino]-N,N-dimethyl-thieno[3,2-d]pyrimidine-7-carboxamide], the Emax was 70% and inhibition was half-maximal at 5210 nM (IC50).

As to `COc1cc(OC)c2c(c1)C(N(CC(C)C)/N=C/c1ccc(B(O)O)c(OC)c1)=NS2(=O)=O` [Ex 3, [4-[(E)-[(5,7-dimethoxy-1,1-dioxo-1,2-benzothiazol-3-yl)-isobutyl-hydrazono]methyl]-2-methoxy-phenyl]boronic acid], the Emax is 89% and inhibition was half-maximal at 2610 nM (IC50).

On to `CN(/N=C/c1ccc2c(c1)COB2O)c1ncnc2c1CC(=O)N2C1CCC1` [Ex111, 7-cyclobutyl-4-[[(E)-(1-hydroxy-3H-2,1-benzoxaborol-5-yl)methyleneamino]-methyl-amino]-5H-pyrrolo[2,3-d]pyrimidin-6-one], for which the Emax turned out to be 83% and the concentration for half-maximal inhibition (IC50) was 1580 nM.

Consider `CC(C)CN(/N=C/c1ccc2c(c1)CCCOB2O)C1=NS(=O)(=O)c2ccccc21` [Ex 47, N-[(E)-(1-hydroxy-4,5-dihydro-3H-2,1-benzoxaborepin-7-yl)methyleneamino]-N-isobutyl-1,1-dioxo-1,2-benzothiazol-3-amine], for which the Emax worked out at 73%.

Take `CCN(/N=C/c1ccc(B(O)O)c(OC)c1)c1ncnc2c(OC)cccc12` [Ex 21, [4-[(E)-[ethyl-(8-methoxyquinazolin-4-yl)hydrazono]methyl]-2-methoxy-phenyl]boronic acid]: the Emax is 90% and inhibition was half-maximal at 1770 nM (IC50).

For `COc1cc(C2=NN(c3ncnc4c(OC)cccc34)C(C)CC2)ccc1B(O)O` (stereo not drawn) [Ex 55, [2-methoxy-4-[2-(8-methoxyquinazolin-4-yl)-3-methyl-4,5-dihydro-3H-pyridazin-6-yl]phenyl]boronic acid], the Emax turned out to be 92% and the IC50 turned out to be 1530 nM.

With `CCCn1ccc2c(N(CC)/N=C/c3ccc4c(c3)COB4O)ncnc21` [Ex84, N-ethyl-N-[(E)-(1-hydroxy-3H-2,1-benzoxaborol-5-yl)methyleneamino]-7-propyl-pyrrolo[2,3-d]pyrimidin-4-amine], the Emax worked out at 85% and the IC50 is 1030 nM.

With `COCCCN(/N=C/c1ccc2c(c1)COB2O)C1=NS(=O)(=O)c2ccccc21` [Ex 25, N-[(E)-(1-hydroxy-3H-2,1-benzoxaborol-5-yl)methyleneamino]-N-(3-methoxypropyl)-1,1-dioxo-1,2-benzothiazol-3-amine], the Emax is 78% and it took 2780 nM to reach half-maximal inhibition (IC50).

With `CN(/N=C/c1ccc2c(c1)COB2O)c1ncnc2c1[nH]c(=O)n2C1CC(O)C1` (stereo not drawn) [Ex109, 6-[[(E)-(1-hydroxy-3H-2,1-benzoxaborol-5-yl)methyleneamino]-methyl-amino]-9-(3-hydroxycyclobutyl)-7H-purin-8-one hydrochloride], the Emax was determined as 86% and inhibition was half-maximal at 1650 nM (IC50).

As to `CCN(/N=C/c1ccc2c(c1)COB2O)c1ncnc2c(C(=O)NCCCCOC)csc12` [Ex116, 4-[ethyl-[(E)-(1-hydroxy-3H-2,1-benzoxaborol-5-yl)methyleneamino]-amino]-N-(4-methoxybutyl)thieno[3,2-d]pyrimidine-7-carboxamide], the Emax worked out at 86% and the IC50 was 1940 nM.

Consider `Cc1ccc2c(c1)C(N(C)/N=C/c1ccc3c(c1)COB3O)=NS2(=O)=O` [Ex 36, N-[(E)-(1-hydroxy-3H-2,1-benzoxaborol-5-yl)methyleneamino]-N,5-dimethyl-1,1-dioxo-1,2-benzothiazol-3-amine], for which the Emax is 60%.

With `CCN(/N=C/c1ccc2c(c1)COB2O)c1ncnc2cn[nH]c12` [Ex78, N-ethyl-N-[(E)-(1-hydroxy-3H-2,1-benzoxaborol-5-yl)methyleneamino]-1H-pyrazolo[4,3-d]pyrimidin-7-amine], the Emax was 75% and the half-inhibitory concentration (IC50) was found to be 2220 nM.

With `COc1cc(/C=N/N(CC(C)C)c2ncnc3c(OC)cccc23)ccc1B(O)O` [Ex 13, [4-[(E)-[isobutyl-(8-methoxyquinazolin-4-yl)hydrazono]methyl]-2-methoxy-phenyl] boronic acid], the Emax was 95% and the IC50 is 5780 nM.

As for `CCN(/N=C/c1ccc(B(O)O)c(OC)c1)c1ncnc2c(C)csc12` [Ex62, [4-[(E)-[ethyl-(7-methylthieno[3,2-d]pyrimidin-4-yl)hydrazono]methyl]-2-methoxy-phenyl]boronic acid], the Emax is 58% and the IC50 was found to be 990 nM.

For the compound `COc1cc(/C=N/N(C)c2cc(C)cnn2)ccc1B(O)O` [Ex 59, [2-methoxy-4-[(E)-[methyl-(5-methylpyridazin-3-yl)hydrazono]methyl]-phenyl] boronic acid], the Emax was 71%.

In the case of `CCN(/N=C/c1ccc2c(c1)COB2O)c1ncnc2c(C(=O)NC3COC3)csc12` [Ex115, 4-[ethyl-[(E)-(1-hydroxy-3H-2,1-benzoxaborol-5-yl)methyleneamino]amino]-N-(oxetan-3-yl)thieno[3,2-d]pyrimidine-7-carboxamide], the Emax was determined as 79% and half-maximal inhibition (IC50) was put at 1740 nM.

For `CCOc1cc(/C=N/N(CC(C)C)C2=NS(=O)(=O)c3ccccc32)ccc1B(O)O` [Ex 14, [4-[(E)-[(1,1-dioxo-1,2-benzothiazol-3-yl)-isobutyl-hydrazono]methyl]-2-ethoxyphenyl]boronic acid], the Emax amounted to 90%.

Turning to `COc1cc(C2=NN(c3ncnc4ccsc34)C(C)CC2)ccc1B(O)O` (stereo not drawn) [Ex72, [2-methoxy-4-(3-methyl-2-thieno[3,2-d]pyrimidin-4-yl-4,5-dihydro-3H-pyridazin-6-yl)phenyl]boronic acid], the Emax amounted to 85% and inhibition was half-maximal at 1860 nM (IC50).

Turning to `COc1cccc2c(N(CC(C)C)/N=C/c3ccc4c(c3)COB4O)ncnc12` [Ex 32, N-[(E)-(1-hydroxy-3H-2,1-benzoxaborol-5-yl)methyleneamino]-N-isobutyl-8-methoxy-quinazolin-4-amine], the Emax was 86% and the IC50 amounted to 1590 nM.

With `COc1cc(C2=NN(C3=NS(=O)(=O)c4ccccc43)C(C)CC2)ccc1B(O)O` (stereo not drawn) [Ex 52, [4-[2-(1,1-dioxo-1,2-benzothiazol-3-yl)-3-methyl-4,5-dihydro-3H-pyridazin-6-yl]-2-methoxy-phenyl]boronic acid], the Emax was 70% and half-maximal inhibition (IC50) was put at 1660 nM.

Consider `Cc1csc2c(N(CC(C)C)/N=C/c3ccc4c(c3)COB4O)ncnc12` [Ex93, N-[(E)-(1-hydroxy-3H-2,1-benzoxaborol-5-yl)methyleneamino]-N-isobutyl-7-methyl-thieno[3,2-d]pyrimidin-4-amine], for which the Emax stood at 80% and half-maximal inhibition (IC50) required 710 nM.

With `CC(C)CN(/N=C/c1ccc(B(O)O)c(Cl)c1)C1=NS(=O)(=O)c2ccccc21` [Ex 6, [2-chloro-4-[(E)-[(1,1-dioxo-1,2-benzothiazol-3-yl)-isobutyl-hydrazono]methyl]phenyl] boronic acid], the Emax came to 62%.

Take `COc1ccc2c(c1)C(N(CC(C)C)/N=C/c1ccc(B(O)O)c(OC)c1)=NS2(=O)=O` [Ex 2, [4-[(E)-[isobutyl-(5-methoxy-1,1-dioxo-1,2-benzothiazol-3-yl)hydrazono]methyl]-2-methoxy-phenyl]boronic acid]: the Emax turned out to be 95% and half-maximal inhibition (IC50) was put at 2280 nM.

With `CC(C)CN(/N=C/c1ccc(B(O)O)cc1)C1=NS(=O)(=O)c2ccccc21` [Ex 8, [4-[(E)-[(1,1-dioxo-1,2-benzothiazol-3-yl)-isobutyl-hydrazono]methyl]-phenyl] boronic acid], the Emax worked out at 74%.

Consider `CC1CCC(c2ccc3c(c2)COB3O)=NN1c1ncnc2occc12` (stereo not drawn) [Ex117, 4-[6-(1-hydroxy-3H-2,1-benzoxaborol-5-yl)-3-methyl-4,5-dihydro-3H-pyridazin-2-yl]furo[2,3-d]pyrimidine], for which the Emax came out at 82% and inhibition was half-maximal at 690 nM (IC50).

As for `CC(C)CN(/N=C/c1ccc2c(c1)COB2O)c1ncnc2ccsc12` [Ex 35, N-[(E)-(1-hydroxy-3H-2,1-benzoxaborol-5-yl)methyleneamino]-N-isobutyl-thieno [3,2-d]pyrimidin-4-amine], the Emax turned out to be 87% and the IC50 stood at 1360 nM.

Take `CC(C)CN(/N=C/c1ccc2c(c1)COB2O)C1=NS(=O)(=O)c2ccc(F)cc21` [Ex 28, 5-fluoro-N-[(E)-(1-hydroxy-3H-2,1-benzoxaborol-5-yl)methyleneamino]-N-isobutyl-1,1-dioxo-1,2-benzothiazol-3-amine]: the Emax turned out to be 90% and the IC50 was 2750 nM.

Regarding `Cc1csc2c(N3N=C(c4ccc5c(c4)COB5O)CCC3C)ncnc12` (single isomer, unassigned; (+)) [Ex119, (+) 4-[6-(1-hydroxy-3H-2,1-benzoxaborol-5-yl)-3-methyl-4,5-dihydro-3H-pyridazin-2-yl]-7-methyl-thieno[3,2-d]pyrimidine], the Emax stood at 77% and the IC50 came to 430 nM.

For `CCN(/N=C/c1ccc2c(c1)COB2O)c1nc(C)nc2ccsc12` [Ex 45, N-ethyl-N-[(E)-(1-hydroxy-3H-2,1-benzoxaborol-5-yl)methyleneamino]-2-methyl-thieno[3,2-d]pyrimidin-4-amine], the Emax was 63% and the IC50 is 1020 nM.
